Reference: ChEMBL document CHEMBL3045916, “Synthesis, characterization, biological evaluation and in silico screening of oxadiazinanones” (Med Chem Res, 2013)
Values after ≈ are worked out from the molar mass of the structure shown.

Tests used:
Klebsiella pneumoniae [1] = assay: Antibacterial activity against Klebsiella pneumoniae clinical isolate assessed as growth inhibition after 24 hr by disk diffusion method; format: functional
[2] = tested on: Radical scavenging activity; assay: Antioxidant activity assessed as DPPH radical scavenging activity at 10 ug/mL after 30 min by spectrophotometric analysis relative to control; format: functional
Candida albicans [3] = assay: Fungicidal activity against Candida albicans ATCC 90028 after 48 hr; format: functional; conditions: ATCC 90028, 48 h
[4] = tested on: Trichophyton mentagrophytes; assay: Fungicidal activity against Trichophyton mentagrophytes after 48 hr; format: functional
Escherichia coli [5] = assay: Antibacterial activity against Escherichia coli ATCC 25922 assessed as growth inhibition after 24 hr by disk diffusion method; format: functional
Staphylococcus aureus [6] = assay: Bactericidal activity against methicillin-resistant Staphylococcus aureus after 18 to 24 hr; format: functional
Staphylococcus aureus [7] = assay: Antibacterial activity against methicillin-resistant Staphylococcus aureus assessed as growth inhibition after 24 hr by disk diffusion method; format: functional
[8] = tested on: Radical scavenging activity; assay: Antioxidant activity assessed as DPPH radical scavenging activity after 30 min by spectrophotometric analysis; format: functional
[9] = tested on: Trichophyton mentagrophytes; assay: Antifungal activity against Trichophyton mentagrophytes assessed as growth inhibition after 48 hr by agar disk diffusion method; format: functional
Candida albicans [10] = assay: Antifungal activity against Candida albicans ATCC 90028 assessed as growth inhibition after 48 hr by agar disk diffusion method; format: functional
[11] = tested on: Radical scavenging activity; assay: Antioxidant activity assessed as DPPH radical scavenging activity at 6 ug/mL after 30 min by spectrophotometric analysis relative to control; format: functional
Klebsiella pneumoniae [12] = assay: Antibacterial activity against Klebsiella pneumoniae clinical isolate assessed as growth inhibition after 24 hr by macro-dilution method; format: functional
Aspergillus fumigatus [13] = assay: Fungicidal activity against Aspergillus fumigatus after 48 hr; format: functional
Pseudomonas aeruginosa [14] = assay: Bactericidal activity against Pseudomonas aeruginosa ATCC 9029 after 18 to 24 hr; format: functional
Talaromyces marneffei [15] = assay: Antifungal activity against Talaromyces marneffei assessed as growth inhibition after 48 hr by macro-dilution method; format: functional
Talaromyces marneffei [16] = assay: Fungicidal activity against Talaromyces marneffei after 48 hr; format: functional
Aspergillus fumigatus [17] = assay: Antifungal activity against Aspergillus fumigatus assessed as growth inhibition after 48 hr by macro-dilution method; format: functional
Escherichia coli [18] = assay: Antibacterial activity against Escherichia coli ATCC 8739 assessed as growth inhibition after 24 hr by macro-dilution method; conditions: ATCC 8739, 24 h
Staphylococcus aureus [19] = assay: Antibacterial activity against methicillin-resistant Staphylococcus aureus assessed as growth inhibition after 24 hr by macro-dilution method; format: functional
Pseudomonas aeruginosa [20] = assay: Antibacterial activity against Pseudomonas aeruginosa ATCC 9029 assessed as growth inhibition after 24 hr by macro-dilution method; format: functional; conditions: ATCC 9029, 24 h
[21] = tested on: Trichophyton mentagrophytes; assay: Antifungal activity against Trichophyton mentagrophytes assessed as growth inhibition after 48 hr by macro-dilution method; format: functional
Streptococcus pyogenes [22] = assay: Bactericidal activity against Streptococcus pyogenes clinical isolate after 18 to 24 hr; format: functional
Pseudomonas aeruginosa [23] = assay: Antibacterial activity against Pseudomonas aeruginosa ATCC 9029 assessed as growth inhibition after 24 hr by disk diffusion method; format: functional
[24] = tested on: Radical scavenging activity; assay: Antioxidant activity assessed as DPPH radical scavenging activity at 8 ug/mL after 30 min by spectrophotometric analysis relative to control; format: functional
Escherichia coli [25] = assay: Bactericidal activity against Escherichia coli ATCC 25922 after 18 to 24 hr; format: functional
[26] = tested on: Radical scavenging activity; assay: Antioxidant activity assessed as DPPH radical scavenging activity at 2 ug/mL after 30 min by spectrophotometric analysis relative to control; format: functional
Streptococcus pyogenes [27] = assay: Antibacterial activity against Streptococcus pyogenes clinical isolate assessed as growth inhibition after 24 hr by disk diffusion method; format: functional
Candida albicans [28] = assay: Antifungal activity against Candida albicans ATCC 90028 assessed as growth inhibition after 48 hr by macro-dilution method; format: functional; conditions: ATCC 90028, 48 h
Talaromyces marneffei [29] = assay: Antifungal activity against Talaromyces marneffei assessed as growth inhibition after 48 hr by agar disk diffusion method; format: functional
Aspergillus fumigatus [30] = assay: Antifungal activity against Aspergillus fumigatus assessed as growth inhibition after 48 hr by agar disk diffusion method; format: functional
[31] = tested on: Radical scavenging activity; assay: Antioxidant activity assessed as DPPH radical scavenging activity at 4 ug/mL after 30 min by spectrophotometric analysis relative to control; format: functional
Streptococcus pyogenes [32] = assay: Antibacterial activity against Streptococcus pyogenes clinical isolate assessed as growth inhibition after 24 hr by macro-dilution method; format: functional
Klebsiella pneumoniae [33] = assay: Bactericidal activity against Klebsiella pneumoniae clinical isolate after 18 to 24 hr; format: functional

SMILES	Activity [2]	MFC (Candida albicans [3])	MFC [4]	diameter of the inhibition zone (DIZ) (Escherichia coli [5])	diameter of the inhibition zone (DIZ) (Staphylococcus aureus [7])	IC50 [8]	diameter of the inhibition zone (DIZ) [9]	diameter of the inhibition zone (DIZ) (Candida albicans [10])	Activity [11]	MFC (Aspergillus fumigatus [13])	MIC (Talaromyces marneffei [15])	MFC (Talaromyces marneffei [16])	MIC (Aspergillus fumigatus [17])	MIC [21]	diameter of the inhibition zone (DIZ) (Pseudomonas aeruginosa [23])	Activity [24]	Activity [26]	MIC (Candida albicans [28])	diameter of the inhibition zone (DIZ) (Talaromyces marneffei [29])	diameter of the inhibition zone (DIZ) (Aspergillus fumigatus [30])	further results
CC1(c2ccc(O)cc2O)NNC(=O)CO1 (stereo not drawn)	81.1%	100 µg/mL (≈ 446 µM)	100 µg/mL (≈ 446 µM)	17.2 mm	17.1 mm	6.28 µg/mL (≈ 28 µM)	14.1 mm	20.2 mm	49%	100 µg/mL (≈ 446 µM)	50 µg/mL (≈ 223 µM)	> 100 µg/mL	50 µg/mL (≈ 223 µM)	50 µg/mL (≈ 223 µM)	24.4 mm	64%	15.7%	50 µg/mL (≈ 223 µM)	11.1 mm	16.2 mm	diameter of the inhibition zone (DIZ) (Klebsiella pneumoniae [1]): 14.1 mm; MBC (Staphylococcus aureus [6]): 100 µg/mL (≈ 446 µM); MIC (Klebsiella pneumoniae [12]): 50 µg/mL (≈ 223 µM); MBC (Pseudomonas aeruginosa [14]): > 100 µg/mL; MIC (Escherichia coli [18]): 50 µg/mL (≈ 223 µM); MIC (Staphylococcus aureus [19]): 50 µg/mL (≈ 223 µM); MIC (Pseudomonas aeruginosa [20]): 50 µg/mL (≈ 223 µM); MBC (Streptococcus pyogenes [22]): 100 µg/mL (≈ 446 µM); MBC (Escherichia coli [25]): 100 µg/mL (≈ 446 µM); diameter of the inhibition zone (DIZ) (Streptococcus pyogenes [27]): 18.1 mm; Activity [31]: 30.2%; MIC (Streptococcus pyogenes [32]): 50 µg/mL (≈ 223 µM); MBC (Klebsiella pneumoniae [33]): 100 µg/mL (≈ 446 µM)
CC1(c2cc(O)ccc2O)NNC(=O)CO1 (stereo not drawn)	32.3%	100 µg/mL (≈ 446 µM)	100 µg/mL (≈ 446 µM)	17.2 mm	17.6 mm	12.95 µg/mL (≈ 57.8 µM)	14.8 mm	21.4 mm	25.2%	100 µg/mL (≈ 446 µM)	50 µg/mL (≈ 223 µM)	100 µg/mL (≈ 446 µM)	50 µg/mL (≈ 223 µM)	50 µg/mL (≈ 223 µM)	24.1 mm	30.3%	6.61%	50 µg/mL (≈ 223 µM)	11.7 mm	16.8 mm	diameter of the inhibition zone (DIZ) (Klebsiella pneumoniae [1]): 14.8 mm; MBC (Staphylococcus aureus [6]): 100 µg/mL (≈ 446 µM); MIC (Klebsiella pneumoniae [12]): 50 µg/mL (≈ 223 µM); MBC (Pseudomonas aeruginosa [14]): 100 µg/mL (≈ 446 µM); MIC (Escherichia coli [18]): 50 µg/mL (≈ 223 µM); MIC (Staphylococcus aureus [19]): 50 µg/mL (≈ 223 µM); MIC (Pseudomonas aeruginosa [20]): 50 µg/mL (≈ 223 µM); MBC (Streptococcus pyogenes [22]): 100 µg/mL (≈ 446 µM); MBC (Escherichia coli [25]): 100 µg/mL (≈ 446 µM); diameter of the inhibition zone (DIZ) (Streptococcus pyogenes [27]): 18.6 mm; Activity [31]: 18.7%; MIC (Streptococcus pyogenes [32]): 50 µg/mL (≈ 223 µM); MBC (Klebsiella pneumoniae [33]): 100 µg/mL (≈ 446 µM)
O=C1O[C@H]([C@@H](O)CO)C(O)=C1O [ASCORBIC ACID]	87%					4.45 µg/mL (≈ 25.3 µM)			53.4%							69.3%	18.4%				Activity [31]: 34.9%
O=C(O)c1cn(C2CC2)c2cc(N3CCNCC3)c(F)cc2c1=O [CIPROFLOXACIN]				27.5 mm	21 mm										31.5 mm						
CC1(c2ccc(O)cc2)NNC(=O)CO1 (stereo not drawn)	62.4%	100 µg/mL (≈ 480 µM)	50 µg/mL (≈ 240 µM)	18.4 mm	18.3 mm	8.02 µg/mL (≈ 38.5 µM)	16.3 mm	22.4 mm	37.2%	100 µg/mL (≈ 480 µM)	50 µg/mL (≈ 240 µM)	100 µg/mL (≈ 480 µM)	50 µg/mL (≈ 240 µM)	25 µg/mL (≈ 120 µM)	24.4 mm	49%	11.9%	25 µg/mL (≈ 120 µM)	15.1 mm	19.4 mm	diameter of the inhibition zone (DIZ) (Klebsiella pneumoniae [1]): 14.6 mm; MBC (Staphylococcus aureus [6]): 50 µg/mL (≈ 240 µM); MIC (Klebsiella pneumoniae [12]): 25 µg/mL (≈ 120 µM); MBC (Pseudomonas aeruginosa [14]): 100 µg/mL (≈ 480 µM); MIC (Escherichia coli [18]): 50 µg/mL (≈ 240 µM); MIC (Staphylococcus aureus [19]): 25 µg/mL (≈ 120 µM); MIC (Pseudomonas aeruginosa [20]): 25 µg/mL (≈ 120 µM); MBC (Streptococcus pyogenes [22]): 50 µg/mL (≈ 240 µM); MBC (Escherichia coli [25]): 100 µg/mL (≈ 480 µM); diameter of the inhibition zone (DIZ) (Streptococcus pyogenes [27]): 19.3 mm; Activity [31]: 25.1%; MIC (Streptococcus pyogenes [32]): 25 µg/mL (≈ 120 µM); MBC (Klebsiella pneumoniae [33]): 50 µg/mL (≈ 240 µM)
C[C@@H]1[C@H](O)[C@@H](C)/C=C/C=C/C=C/C=C/C=C/C=C/C=C/[C@H](O[C@@H]2O[C@H](C)[C@@H](O)[C@H](N)[C@@H]2O)C[C@@H]2O[C@](O)(C[C@@H](O)C[C@@H](O)[C@H](O)CC[C@@H](O)C[C@@H](O)CC(=O)O[C@H]1C)C[C@H](O)[C@H]2C(=O)O [AMPHOTERICIN B]		25 µg/mL (≈ 27.1 µM)	25 µg/mL (≈ 27.1 µM)				23.5 mm	30.5 mm		25 µg/mL (≈ 27.1 µM)	12.5 µg/mL (≈ 13.5 µM)	25 µg/mL (≈ 27.1 µM)	12.5 µg/mL (≈ 13.5 µM)	6.25 µg/mL (≈ 6.76 µM)				6.25 µg/mL (≈ 6.76 µM)	21.5 mm	26.5 mm	
CC1(c2ccccc2)NNC(=O)CO1 (stereo not drawn)	59.5%	25 µg/mL (≈ 130 µM)	50 µg/mL (≈ 260 µM)	17.4 mm	18.2 mm	8.25 µg/mL (≈ 42.9 µM)	14.5 mm	21.4 mm	34.8%	50 µg/mL (≈ 260 µM)	25 µg/mL (≈ 130 µM)	100 µg/mL (≈ 520 µM)	25 µg/mL (≈ 130 µM)	25 µg/mL (≈ 130 µM)	24.2 mm	46.8%	9.86%	25 µg/mL (≈ 130 µM)	14.1 mm	17.2 mm	diameter of the inhibition zone (DIZ) (Klebsiella pneumoniae [1]): 14.1 mm; MBC (Staphylococcus aureus [6]): 50 µg/mL (≈ 260 µM); MIC (Klebsiella pneumoniae [12]): 25 µg/mL (≈ 130 µM); MBC (Pseudomonas aeruginosa [14]): 100 µg/mL (≈ 520 µM); MIC (Escherichia coli [18]): 25 µg/mL (≈ 130 µM); MIC (Staphylococcus aureus [19]): 25 µg/mL (≈ 130 µM); MIC (Pseudomonas aeruginosa [20]): 25 µg/mL (≈ 130 µM); MBC (Streptococcus pyogenes [22]): 50 µg/mL (≈ 260 µM); MBC (Escherichia coli [25]): 50 µg/mL (≈ 260 µM); diameter of the inhibition zone (DIZ) (Streptococcus pyogenes [27]): 19.1 mm; Activity [31]: 23.8%; MIC (Streptococcus pyogenes [32]): 25 µg/mL (≈ 130 µM); MBC (Klebsiella pneumoniae [33]): 100 µg/mL (≈ 520 µM)
